This is an account of results in patent US10829446B2, “Aryl sulfonohydrazides” (MONASH UNIVERSITY, priority 2015, dated 2020).

Assay [1] has as its system Mouse embryonic fibroblasts. Description: Bioassay 1: cellular senescence of mouse embryonic fibroblasts. Type of assay: cell-based. As to conditions: for up regulation of β-galactosidase: […] after plating. Here is the method:
Mouse embryonic fibroblasts are isolated from wild type or Moz heterozygous animals and cultured at 3% oxygen/5% carbon dioxide/92% nitrogen. Cells are plated at a density of 1,020 cells/cm^2 or 2,040 cells/cm^2 or 10,204 cells/cm^2. A reference value for MOZ inhibition is generated through comparison with cells with a complete null mutation of MOZ. The absence of a functional Moz gene leads to senescence in 7-14 days at 3% oxygen.
Cells are plated in triplicate cultures at 10,204 cells/cm^2 in the presence of a test compound. Compounds are tested at 500 nM, 1 μM, 2 μM, 5 μM, 10 μM and 20 μM. Control compounds include those that have a similar structure but show no activity in biochemical assays. After 48 hours, cells are passaged and counted, then replated at 10,204/cm^2. This procedure is continued for 336 hours. The total number of cells produced at each passage is then calculated and compared between treatment groups. […] Cells are analysed by flow cytometry for the absence of markers of apoptosis by staining with propidium iodide and FITC-conjugated annexin V. The level of DNA damaged is assessed by γH2A.X staining, a marker of DNA strand breaks.

In the next assay the test system is Wild type pre B cells. Description: Bioassay 8: cell cycle analysis (DNA content and Ki67). Format: cell-based. The settings on record: for cells in G0 / cells in G1 / cells in G2/M / cells in S: 1 μM. Here is the method:
Pre B cells are isolated from bone marrow according to the criterion: cell surface expression of B220, CD19, but not cKit or IgM. Pre-B cells are cultured on OP9 cells with IL7 in the presence of compounds at various concentrations. The stages of the cell cycle in cultured pre-B cells with and without treatment is analysed by flow cytometry using a stain for DNA content combined with the cell cycle marker Ki67 to enumerate the proportion of cells in different phases of the cell cycle.

By IC50 is commonly meant the midpoint of a concentration-inhibition curve. With `Cc1cc(-c2ccccc2)cc(C(=O)NNS(=O)(=O)c2ccccc2)c1F` [Compound 36], the “up regulation of β-galactosidase” value in assay [1] (5 μM) turned out to be 186%. In assay [1] (10 μM), the “up regulation of β-galactosidase” value worked out at 195%. Also, in assay [1] (20 μM), the “up regulation of β-galactosidase” value was 185%. In addition, the 50% inhibitory concentration (IC50) in assay [1] (Mus musculus, Fibroblast, read-out: IC50 (dose at which 50% senescence occur), Bioassay 1) was found to be 1600 nM. Also, in the assay with Wild type pre B cells (cultured for 4 days), the “cells in G0” value was found to be 14.5%, the “cells in G1” value is recorded as 55.9%, the “cells in G2/M” value is recorded as 12.7% and the “cells in S” value was 15.6%. Moreover, in the assay with Wild type pre B cells (cultured for 6 days), the “cells in G0” value was determined as 11.0%, the “cells in G1” value is listed as 66.6%, the “cells in G2/M” value came out at 9.0% and the “cells in S” value stood at 8.3%. In the assay with Wild type pre B cells (wild type pre-B cells), the “number of cells in S phase down-regulated” value came out at 40%.
